# In US9828365B2, “Fused tetracyclic heterocyclic compounds and methods of use thereof for the treatment of viral diseases” (MERCK SHARP & DOHME CORP., priority 2013, dated 2017):
# pIC50: −log10 of the molar value. Like-named read-outs stand apart in the source and are kept apart here.
# What was measured:
# HCV replicon 3A = assay: Cell-based HCV replicon assay, 3A; details: replicon cells, 3 days, replicon RNA by real-time PCR
# Protocol: (§1) To measure cell-based anti-HCV activity of selected compounds of the present invention two complimentary assays were employed. In the first assay, replicon cells were seeded at 2000 cells/well in 384-well flat bottom tissue culture treated clear bottom plate (Corning 3707) in the presence of the test compound. Various concentrations of test compound, typically in 10 serial dilutions, were added to the assay mixture, with the starting concentration ranging from 333.3 nM to 1.667 nM. The final concentration of DMSO was 0.5%. Fetal bovine serum was 5%, in the assay media. Cells were harvested on day 3 by removing media and washing the cells with a suitable wash buffer. The cells were lysed with the addition of 1× Qiagen lysis buffer (Cat #1062731). The replicon RNA level was measured using real time PCR (TaqMan® EZ RT-PCR, Applied Biosystems 403028) with the following primers and probes: […]
# (§2) Cyclophilin RNA was used as endogenous control and was amplified in the same reaction as NS5B (multiplex PCR). The real-time RT-PCR reactions were run on ABI PRISM 7900HT Sequence Detection System using the following program: 50° C. for 2 minutes, 60° C. for 30 minutes, 95° C. for 5 minutes, 40 cycles of 94° C. for 20 sec, 55° C. for 1 minute.
# (§3) The amount of HCV replicon RNA per cell is quantified using a linear regression curve for a known nanogram (ng) amount of HCV replicon total RNA. This is established by plotting the Cycle Threshold values (Ct) from the Neo probe and primer set versus the log (ng) for each HCV replicon total RNA standard. The amount of HCV RNA for each replicon sample is calculated by taking the sample's Ct value, minus the line intercept, divided by the slope of the line. Similarly, the amount of Cyclophilin mRNA per cell is also quantified using a linear regression curve for a known nanogram (ng) amount of HCV replicon total RNA. Again, this is established by plotting the Cycle Threshold values (Ct) from the Cyclophilin probe and primer set versus the log (ng) for each HCV replicon total RNA standard.
# (§4) In the alternate assay, 1000 cells were seeded per well in a 384-well collagen coated black plate from Greiner bio-one (Cat #781946) in 5% FBS. Inhibitors of this invention were added at 24 hours post-seeding, and the plates were incubated for 3 days. Cells were subsequently lysed with Qiagen lysis buffer (Cat #1062731) to extract the RNA. HCV replicon RNA level was measured by real-time PCR using the RNA-to-CT kit from Applied Biosystem (Cat #4392656) and genotype-specific primers and probes. The amplicon was located within NS5B. The sequence of the PCR primers were as follows: 5B.2F, ATGGACAGGCGCCCTGA (SEQ. ID NO. 7); 5B.2R, […] (SEQ. ID NO. 8); the probe sequence was FAM-labeled CACGCCATGCGCTGCGG (SEQ. ID NO. 9). To detect genotype 1A the primer 1A F, TGCGGAACCGGTGAGTACA (SEQ ID NO:10) and 1A R, […] (SEQ ID NO: 11) were used; the probe sequence was FAM-[…] (SEQ ID NO:12).
# (§5) The real-time RT-PCR reactions were run on ABI PRISM 7900HT or Viia7 Sequence Detection System using the following program: 48° C. for 30 minutes, 95° C. for 10 minutes, 40 cycles of 95° C. for 15 sec, 60° C. for 1 minute. The 50% effective concentration (EC50) was the drug concentration necessary to achieve an increase in the cycle threshold (CT) of 1 over the projected baseline CT. The EC90 was the drug concentration necessary to achieve an increase in CT of 3.2 over the projected baseline CT.
# HCV replicon 2B = assay: Cell-based HCV replicon assay, 2B; details: replicon cells, 3 days, replicon RNA by real-time PCR
# Protocol: as §1, §2, §3, §4, §5
# HCV replicon 1A Y93H = assay: Cell-based HCV replicon assay, 1A Y93H; details: for IC50: Hepatitis C virus, 72 h, read-out: 1A Y93H IC50 (nM), replicon cells, 3 days, replicon RNA by real-time PCR; for pIC50: read-out: 1A Y93H IC50, replicon cells, 3 days, replicon RNA by real-time PCR
# Protocol: as §1, §2, §3, §4, §5
# HCV replicon genotype 1A = assay: Cell-based HCV replicon assay, 1A; details: replicon cells, 3 days, replicon RNA by real-time PCR
# Protocol: as §1, §2, §3, §4, §5
# HCV replicon 1B = assay: Cell-based HCV replicon assay, 1B; details: replicon cells, 3 days, replicon RNA by real-time PCR
# Protocol: as §1, §2, §3, §4, §5
Compound,IC50 (HCV replicon 1A Y93H) [nM],pIC50 (HCV replicon genotype 1A),pIC50 (HCV replicon 1A Y93H),further results
"COC(=O)N[C@H](C(=O)N1CCC[C@H]1c1ncc(-c2ccc3c(c2)OC(c2cccc(OC)c2)C2=C3COc3cc(-c4cnc([C@@H]5CCCN5C(=O)[C@@H](NC(=O)OC)C(C)C)[nH]4)ccc32)[nH]1)C(C)C (single isomer, unassigned) [Compound 10]",2.94,11.46,,"pIC50 (HCV replicon 3A): 9.63; pIC50 (HCV replicon 2B; Hepatitis C virus, 72 h): 8.57"
COC(=O)N[C@H](C(=O)N1C[C@H](F)C[C@H]1c1ncc(-c2ccc3c(c2)OCc2c-3c(=O)oc3cc(-c4cnc([C@@H]5C[C@@H](F)CN5C(=O)[C@@H](NC(=O)OC)C(C)C)[nH]4)ccc23)[nH]1)C(C)C [Compound 5],0.337,,,"pIC50 (HCV replicon 3A; Hepatitis C virus, 72 h): 9.00; pIC50 (HCV replicon 1B; Hepatitis C virus, 72 h): 11.36; pIC50 (HCV replicon 2B; Hepatitis C virus, 72 h): 7.00; pIC50 (HCV replicon genotype 1A; Hepatitis C virus, 72 h): 10.82"
"COC(=O)N[C@H](C(=O)N1CCC[C@H]1c1ncc(-c2ccc3c(c2)OC(c2cccc(OC)c2)C2=C3COc3cc(-c4cnc([C@@H]5CCCN5C(=O)[C@@H](NC(=O)OC)C(C)C)[nH]4)ccc32)[nH]1)C(C)C (single isomer, unassigned) [Compound 12]",,10.60,8.61,pIC50 (HCV replicon 3A): 8.74
"COC(=O)N[C@H](C(=O)N1CCC[C@H]1c1ncc(-c2ccc3c(c2)OC(C2CC2)C2=C3COc3cc(-c4cnc([C@@H]5CCCN5C(=O)[C@@H](NC(=O)OC)C(C)C)[nH]4)ccc32)[nH]1)C(C)C (single isomer, unassigned) [Compound 16]",,,8.20,"pIC50 (HCV replicon 3A; Hepatitis C virus, 72 h): 8.43; pIC50 (HCV replicon 2B; Hepatitis C virus, 72 h): 9.21; pIC50 (HCV replicon genotype 1A; Hepatitis C virus, 72 h): 10.93"
"COC(=O)N[C@H](C(=O)N1CCC[C@H]1c1ncc(-c2ccc3c(c2)OC(C2CC2)C2=C3COc3cc(-c4cnc([C@@H]5CCCN5C(=O)[C@@H](NC(=O)OC)C(C)C)[nH]4)ccc32)[nH]1)C(C)C (single isomer, unassigned) [Compound 17]",,10.94,7.24,
"COC(=O)N[C@H](C(=O)N1CCC[C@H]1c1ncc(-c2ccc3c(c2)OC(c2cccc(OC)c2)C2=C3COc3cc(-c4cnc([C@@H]5CCCN5C(=O)[C@@H](NC(=O)OC)C(C)C)[nH]4)ccc32)[nH]1)C(C)C (single isomer, unassigned) [Compound 11]",,11.00,,"pIC50 (HCV replicon 1B; Hepatitis C virus, 72 h): 11.22"
COC(=O)N[C@H](C(=O)N1CCC[C@H]1c1ncc(-c2ccc3c(c2)OC(c2ccccc2)C2=C3COc3cc(-c4cnc([C@@H]5CCCN5C(=O)[C@@H](NC(=O)OC)C(C)C)[nH]4)ccc32)[nH]1)C(C)C (some centres unmarked) [Compound 7],4.29,,,"pIC50 (HCV replicon 3A; Hepatitis C virus, 72 h): 10.21; pIC50 (HCV replicon 1B; Hepatitis C virus, 72 h): 11.70; pIC50 (HCV replicon 2B; Hepatitis C virus, 72 h): 9.00; pIC50 (HCV replicon genotype 1A; Hepatitis C virus, 72 h): 11.12"
"COC(=O)N[C@H](C(=O)N1CCC[C@H]1c1ncc(-c2ccc3c(c2)OC(c2ccccc2)C2=C3COc3cc(-c4cnc([C@@H]5CCCN5C(=O)[C@@H](NC(=O)OC)C(C)C)[nH]4)ccc32)[nH]1)C(C)C (single isomer, unassigned) [Compound 9]",,11.00,8.40,pIC50 (HCV replicon 3A): 9.76; pIC50 (HCV replicon 1B): 11.14; pIC50 (HCV replicon 2B): 8.72
"COC(=O)N[C@H](C(=O)N1CCC[C@H]1c1ncc(-c2ccc3c(c2)OC(C)C2=C3COc3cc(-c4cnc([C@@H]5CCCN5C(=O)[C@@H](NC(=O)OC)C(C)C)[nH]4)ccc32)[nH]1)C(C)C (single isomer, unassigned) [Compound 14]",,10.91,7.50,pIC50 (HCV replicon 2B): 7.61
COC(=O)N[C@H](C(=O)N1CCC[C@H]1c1ncc(-c2ccc3c(c2)OCC2=C3COc3cc(-c4cnc([C@@H]5C[C@H]6C[C@H]6N5C(=O)[C@@H](NC(=O)OC)C(C)C)[nH]4)ccc32)[nH]1)C(C)C [Compound 22],2.01,,,"pIC50 (HCV replicon 3A; Hepatitis C virus, 72 h): 8.69; pIC50 (HCV replicon 2B; Hepatitis C virus, 72 h): 7.80; pIC50 (HCV replicon genotype 1A; Hepatitis C virus, 72 h): 11.64"
"COC(=O)N[C@H](C(=O)N1C[C@H](F)C[C@H]1c1ncc(-c2ccc3c(c2)OC(C2CC2)C2=C3COc3cc(-c4cnc([C@@H]5C[C@@H](F)CN5C(=O)[C@@H](NC(=O)OC)C(C)C)[nH]4)ccc32)[nH]1)C(C)C (single isomer, unassigned) [Compound 21]",,10.81,8.66,
"COC(=O)N[C@H](C(=O)N1CCC[C@H]1c1ncc(-c2ccc3c(c2)OC(C2CC2)C2=C3COc3cc(-c4cnc([C@@H]5CCCN5C(=O)[C@@H](NC(=O)OC)C(C)C)[nH]4)ccc32)[nH]1)C(C)C (single isomer, unassigned) [Compound 18]",,11.09,7.84,
"COC(=O)N[C@H](C(=O)N1CCC[C@H]1c1ncc(-c2ccc3c(c2)OC(C)C2=C3COc3cc(-c4cnc([C@@H]5CCCN5C(=O)[C@@H](NC(=O)OC)C(C)C)[nH]4)ccc32)[nH]1)C(C)C (single isomer, unassigned) [Compound 15]",,10.64,6.90,pIC50 (HCV replicon 2B): 7.82
CC(C)(C)OC(=O)N1C[C@H](F)C[C@H]1c1ncc(-c2ccc3c(c2)OCc2c-3c(=O)oc3cc(-c4cnc([C@@H]5C[C@@H](F)CN5C(=O)OC(C)(C)C)[nH]4)ccc23)[nH]1 [Compound 6],3080,,,"pIC50 (HCV replicon genotype 1A; Hepatitis C virus, 72 h): 6.01"
"COC(=O)N[C@H](C(=O)N1CCC[C@H]1c1ncc(-c2ccc3c(c2)OC(c2ccccc2)C2=C3COc3cc(-c4cnc([C@@H]5CCCN5C(=O)[C@@H](NC(=O)OC)C(C)C)[nH]4)ccc32)[nH]1)C(C)C (single isomer, unassigned) [Compound 8]",,10.47,7.69,pIC50 (HCV replicon 3A): 9.01; pIC50 (HCV replicon 1B): 10.68; pIC50 (HCV replicon 2B): 8.18
"COC(=O)N[C@H](C(=O)N1C[C@H](F)C[C@H]1c1ncc(-c2ccc3c(c2)OC(C2CC2)C2=C3COc3cc(-c4cnc([C@@H]5C[C@@H](F)CN5C(=O)[C@@H](NC(=O)OC)C(C)C)[nH]4)ccc32)[nH]1)C(C)C (single isomer, unassigned) [Compound 19]",2.31,10.72,,
"COC(=O)N[C@H](C(=O)N1CCC[C@H]1c1ncc(-c2ccc3c(c2)OC(C)C2=C3COc3cc(-c4cnc([C@@H]5CCCN5C(=O)[C@@H](NC(=O)OC)C(C)C)[nH]4)ccc32)[nH]1)C(C)C (single isomer, unassigned) [Compound 13]",,10.46,7.62,"pIC50 (HCV replicon 3A; Hepatitis C virus, 72 h): 9.00; pIC50 (HCV replicon 2B): 7.92"
"COC(=O)N[C@H](C(=O)N1C[C@H](F)C[C@H]1c1ncc(-c2ccc3c(c2)OC(C2CC2)C2=C3COc3cc(-c4cnc([C@@H]5C[C@@H](F)CN5C(=O)[C@@H](NC(=O)OC)C(C)C)[nH]4)ccc32)[nH]1)C(C)C (single isomer, unassigned) [Compound 20]",,10.06,8.71,
